# Legend:
# T4 gp41 = biological target: T1, T4 gp41 (Enterobacteria phage T4, UniProt P04530); assay: T4 gp41 helicase assay; assay type: biochemical; conditions: 1 mM, Figure S3
# T1 sequence (P04530 1-475): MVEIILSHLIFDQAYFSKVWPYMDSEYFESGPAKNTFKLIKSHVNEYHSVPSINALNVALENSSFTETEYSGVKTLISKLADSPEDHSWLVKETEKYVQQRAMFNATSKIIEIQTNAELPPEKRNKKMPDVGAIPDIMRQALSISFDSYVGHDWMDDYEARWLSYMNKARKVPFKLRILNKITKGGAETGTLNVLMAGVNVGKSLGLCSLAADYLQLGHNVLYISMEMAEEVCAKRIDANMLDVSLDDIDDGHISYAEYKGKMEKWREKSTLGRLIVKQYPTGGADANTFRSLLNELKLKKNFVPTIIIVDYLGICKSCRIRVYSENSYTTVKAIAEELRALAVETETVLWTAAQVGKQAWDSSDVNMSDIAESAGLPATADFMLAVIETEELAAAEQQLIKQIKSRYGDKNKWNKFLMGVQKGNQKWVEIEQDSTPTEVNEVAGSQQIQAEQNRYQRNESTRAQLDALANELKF
# Procedure: (§1) Helicase assays were performed essentially as described. Synthetic replication forks were prepared by annealing oligos 233 and 235 [IDT (Coralville), oligo 233 5′(T)40[…]; oligo 235 5′ […](T)40] and then filling in the recessed 3′-end with [α32P]dATP and unlabelled dNTPs using Klenow Fragment. Briefly, reactions ([…]) were performed in 1× helicase assay buffer [20 mM Tris/HCl (pH 7.5), 10 mM MgOAc, 20% (v/v) glycerol, 100 μM EDTA and 5 mM DTT (dithiothreitol)] and contained a final concentration of 1 nM fork substrate, 5 mM ATP, 40 mM creatine phosphate, […] creatine kinase, 33 μg/ml BSA. Reactions containing Mcm2-7 and Mcm467 were supplemented with 200 mM potassium glutamate. Reactions containing SsoMcm were incubated at 65°C, those containing T4 gp41 were incubated for 30 min at 37°C, and all other reactions were incubated at 37°C for 1 h. The products were separated by 10% (w/v) native PAGE, the resulting gels dried and the radioactivity quantified using a Fuji FLA-5100 phosphoimager. Irrespective of the protein used, all helicase assays contained equal molar helicase concentrations (100 nM, assuming in all cases that the active helicase form is hexameric). Steady-state ATP hydrolysis was assayed as published. In short, reactions were set up essentially as in the helicase assay, with minor exceptions. A non-radiolabelled DNA fork was used, helicase concentration was 100 nM (hexamer) the total ATP concentration was 500 μM and included ~0.5 μCi of [α32P]ATP, and the ATP regeneration system was omitted. Reactions were incubated for 1 h at 37°C and stopped by the addition of SDS. ATP was separated from ADP by PEI (polyethyleneimine) thin layer chromatography, and the ratio of ATP:ADP was quantified using a Fuji FLA-5100 phosphoimager. Based on our prior work, conditions were established to ensure that the results shown are within the linear range of the assay. Protein–ssDNA binding was determined with a double filter-binding assay using an ssDNA probe (oligo 826, 5′[…]) that was 5′-radiolabelled using T4 polynucleotide kinase and [γ32P]ATP [16]. For the double filter-binding assay, the helicase concentration was 150 nM (hexamer) and the ssDNA concentration was 4 nM. For all biochemical assays, helicases were preincubated with inhibitors for 20 min at 37°C unless otherwise indicated. […]
# (§2) against different helicases
# (§3) Representative helicase activity assays in the presence of the indicated inhibitor were tested, quantiﬁed and standardized as described in the legend to F igures 2 (A) and (B). All helicases were assayed at 100 nM
# (§4) ﬁnal concentration (hexamer) with inhibitor preincubation prior to ATP […]
# (§5) F igure S3 Ciproﬂoxacin poor ly inhibits hexameric helicases un- […]
# (§6) All inhibitors were used at 1 mM ﬁnal concentration. […]
# SV40 large TAg = biological target: T2, SV40 large TAg (Simian virus 40, UniProt P03070); assay: Steady-state ATP hydrolysis by TAg; assay type: biochemical, SV40 (simian virus 40); conditions: 1 mM compound, 100 nM hexamer
# T2 construct: made in house
# T2 sequence (P03070 whole entry): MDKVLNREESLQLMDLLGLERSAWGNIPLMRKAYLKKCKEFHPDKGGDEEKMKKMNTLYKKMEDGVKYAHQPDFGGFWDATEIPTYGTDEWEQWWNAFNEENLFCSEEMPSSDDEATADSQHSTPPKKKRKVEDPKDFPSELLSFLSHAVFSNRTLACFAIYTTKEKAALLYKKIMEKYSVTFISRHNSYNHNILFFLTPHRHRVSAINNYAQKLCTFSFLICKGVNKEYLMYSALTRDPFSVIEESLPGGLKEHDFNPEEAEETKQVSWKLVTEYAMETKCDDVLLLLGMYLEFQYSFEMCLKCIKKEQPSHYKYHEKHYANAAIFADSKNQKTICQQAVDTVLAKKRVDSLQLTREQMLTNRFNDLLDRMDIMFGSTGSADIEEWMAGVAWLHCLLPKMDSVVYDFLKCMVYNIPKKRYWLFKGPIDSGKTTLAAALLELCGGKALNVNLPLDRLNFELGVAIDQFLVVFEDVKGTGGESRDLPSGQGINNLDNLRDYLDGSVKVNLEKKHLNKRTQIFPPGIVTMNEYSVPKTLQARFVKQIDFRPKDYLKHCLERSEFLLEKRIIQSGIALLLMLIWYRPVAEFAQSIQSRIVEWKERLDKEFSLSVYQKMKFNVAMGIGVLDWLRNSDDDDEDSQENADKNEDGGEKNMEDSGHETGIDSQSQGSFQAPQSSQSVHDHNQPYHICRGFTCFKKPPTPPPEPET
# [1] = biological target: T3, SsoMcm (Sulfolobus solfataricus Mcm protein) complex (Saccharolobus solfataricus, UniProt Q9UXG1); assay: SsoMcm helicase assay; assay type: biochemical; conditions: 1 mM, 65°C, Figure S3
# T3 sequence (Q9UXG1 1-686): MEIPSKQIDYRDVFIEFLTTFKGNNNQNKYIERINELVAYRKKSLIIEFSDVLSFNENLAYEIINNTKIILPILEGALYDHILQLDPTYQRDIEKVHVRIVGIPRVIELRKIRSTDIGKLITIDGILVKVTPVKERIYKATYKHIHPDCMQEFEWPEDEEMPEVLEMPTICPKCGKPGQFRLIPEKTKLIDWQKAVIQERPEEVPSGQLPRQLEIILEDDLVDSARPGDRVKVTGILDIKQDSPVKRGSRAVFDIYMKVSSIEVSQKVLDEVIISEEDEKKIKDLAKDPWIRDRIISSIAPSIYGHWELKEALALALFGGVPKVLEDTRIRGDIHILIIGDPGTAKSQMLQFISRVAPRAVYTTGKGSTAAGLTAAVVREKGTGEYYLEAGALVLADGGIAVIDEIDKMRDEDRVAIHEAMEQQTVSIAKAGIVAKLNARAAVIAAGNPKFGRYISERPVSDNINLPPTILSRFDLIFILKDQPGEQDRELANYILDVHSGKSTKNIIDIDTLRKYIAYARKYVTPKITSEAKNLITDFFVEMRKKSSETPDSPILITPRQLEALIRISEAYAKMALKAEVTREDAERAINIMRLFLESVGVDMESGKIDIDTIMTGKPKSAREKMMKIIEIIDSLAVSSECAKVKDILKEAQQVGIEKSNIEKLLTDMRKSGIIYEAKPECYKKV
# Procedure: Helicase assays were performed essentially as described. Synthetic replication forks were prepared by annealing oligos 233 and 235 [IDT (Coralville), oligo 233 5′(T)40[…]; oligo 235 5′ […](T)40] and then filling in the recessed 3′-end with [α32P]dATP and unlabelled dNTPs using Klenow Fragment. Briefly, reactions ([…]) were performed in 1× helicase assay buffer [20 mM Tris/HCl (pH 7.5), 10 mM MgOAc, 20% (v/v) glycerol, 100 μM EDTA and 5 mM DTT (dithiothreitol)] and contained a final concentration of 1 nM fork substrate, 5 mM ATP, 40 mM creatine phosphate, […] creatine kinase, 33 μg/ml BSA. Reactions containing Mcm2-7 and Mcm467 were supplemented with 200 mM potassium glutamate. Reactions containing SsoMcm were incubated at 65°C, those containing T4 gp41 were incubated for 30 min at 37°C, and all other reactions were incubated at 37°C for 1 h. The products were separated by 10% (w/v) native PAGE, the resulting gels dried and the radioactivity quantified using a Fuji FLA-5100 phosphoimager. […] ATP was separated from ADP by PEI (polyethyleneimine) thin layer chromatography, and the ratio of ATP:ADP was quantified using a Fuji FLA-5100 phosphoimager. […] Protein–ssDNA binding was determined with a double filter-binding assay using an ssDNA probe (oligo 826, 5′[…]) that was 5′-radiolabelled using T4 polynucleotide kinase and [γ32P]ATP [16]. […]
# DnaB = DnaB (Escherichia coli, UniProt P0ACB0); assay: DnaB helicase assay; assay type: biochemical; conditions: 1 mM, Figure S3
# Sequence of DnaB (P0ACB0 whole entry): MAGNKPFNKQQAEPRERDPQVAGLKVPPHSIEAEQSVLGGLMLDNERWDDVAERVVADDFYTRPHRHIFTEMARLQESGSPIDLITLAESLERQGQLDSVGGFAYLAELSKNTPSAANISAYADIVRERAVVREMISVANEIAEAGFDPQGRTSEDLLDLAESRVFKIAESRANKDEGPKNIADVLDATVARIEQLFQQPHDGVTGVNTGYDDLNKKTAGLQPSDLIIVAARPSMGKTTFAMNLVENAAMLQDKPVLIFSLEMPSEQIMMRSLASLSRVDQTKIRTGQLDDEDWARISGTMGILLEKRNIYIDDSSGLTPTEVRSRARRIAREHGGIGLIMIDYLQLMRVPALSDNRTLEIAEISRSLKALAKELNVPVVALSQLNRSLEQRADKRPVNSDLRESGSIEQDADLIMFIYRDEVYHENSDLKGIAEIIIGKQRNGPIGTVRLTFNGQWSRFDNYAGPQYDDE
# Procedure: as §1, §2, §3, §4, §5, §6
smiles,measurement,setting,value
"O=C(O)c1cn(C2CC2)c2cc(N3CCNCC3)c(F)cc2c1=O [Ciprofloxacin, ciprofloxacin, reference compound]",inhibition of T4 gp41 helicase,T4 gp41,none of the tested helicases were substantially inhibited
same,effect on ATP hydrolysis of TAg,SV40 large TAg,only modest effects
same,inhibition of SsoMcm helicase,[1],none of the tested helicases were substantially inhibited
same,inhibition of DnaB helicase,DnaB,none of the tested helicases were substantially inhibited

# Reference: publication PMC3791872 (Bioscience Reports, 2013)
